Consider 32 compounds from patent US20120077802A1 (SUNOVION PHARMACEUTICALS INC., priority 2009, published 2012).

In the first assay the target is T1, human histamine H3 receptor (Homo sapiens, UniProt Q9Y5N1).
T1 construct: host or cells: cells expressing the human H3 receptor
T1 sequence (Q9Y5N1 whole entry): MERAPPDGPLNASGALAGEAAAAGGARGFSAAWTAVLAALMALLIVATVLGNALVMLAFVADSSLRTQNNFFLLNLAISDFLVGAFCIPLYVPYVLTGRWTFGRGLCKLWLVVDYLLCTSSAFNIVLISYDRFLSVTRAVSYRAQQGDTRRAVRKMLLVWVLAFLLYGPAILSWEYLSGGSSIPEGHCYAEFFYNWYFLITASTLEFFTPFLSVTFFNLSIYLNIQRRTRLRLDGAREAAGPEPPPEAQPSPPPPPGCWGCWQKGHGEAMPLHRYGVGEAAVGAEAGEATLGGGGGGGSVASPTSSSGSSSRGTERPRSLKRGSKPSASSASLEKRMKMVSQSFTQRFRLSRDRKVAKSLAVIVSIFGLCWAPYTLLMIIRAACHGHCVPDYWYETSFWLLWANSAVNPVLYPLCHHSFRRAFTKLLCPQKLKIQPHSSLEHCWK
The assay is described as follows: H3 GTPγS assay (SPA method), histamine H3 in vitro assay. The assay is classed as biochemical. To be noted: GTPγ[35S] SPA, membranes of cells expressing human H3 receptor; in one embodiment HCl salts tested; read-out: Potency (functional potency as indicated by IC50). The procedure:
H3 GTPγS assay (SPA method) was performed at EuroScreen (Belgium, ES-392-C) using conventional methods. Briefly, cells expressing the human histamine H3 receptor were homogenized in 15 mM Tris-HCl pH 7.5, 2 mM MgCl2, 0.3 mM EDTA, and 1 mM EGTA. Membranes were washed twice in the above tris buffer, collected by centrifugation (40,000×g, 25 min), and re-suspended in 75 mM Tris-HCl pH 7.5, 12.5 mM MgCl2, 0.3 mM EDTA, 1 mM EGTA, and 250 mM sucrose. Membranes were frozen in liquid nitrogen until use. On the day of the assay, membranes were thawed and diluted in assay buffer (20 mM HEPES pH 7.4, 100 mM NaCl, 10 μg/ml saponin, 1 mM MgCl2) to give 500 μg/ml and mixed (v/v) with GDP in assay buffer for a final GDP concentration of 10 μM and incubated on ice for at least 15 min. PVT-WGA beads (Amersham, RPNQ001) were diluted in assay buffer at 50 mg/mL and mixed with GTPγ[^35S] (Amersham, SJ1308) diluted in assay buffer to give ˜25,000 dpm/10 μL, and mixed vol/vol just before the start of the reaction. The reaction was started by adding 50 μL of test compound, 20 μL of the membranes:GDP mix, 10 μL of buffer, and 20 μL of the GTPγ[^35S]:beads mix in a 96 well plate Optiplate™ (PerkinElmer, 6005299) covered with topseal (TopCount™, PerkinElmer), mixed with an orbital shaker for 2 min, incubated for 1 hour at room temperature, centrifuged for 10 min at 2000 rpm, incubated for 1 h at room temperature, and counted for 1 min in a TopCount™ reader (PerkinElmer). Dose response curves and IC50 values (concentration to inhibit the reaction by 50%) were calculated by nonlinear regression using XLfit software (IDBS).
For antagonists testing, 10 μL of a reference agonist (R-γ-Me-Histamine) instead of 10 μL buffer was added at a concentration corresponding to the EC80 (30 nM). Control ligands were R-γ-Me-Histamine (Tocris, 0569), Imetit (Sigma, I-135), Thioperamide (Tocris, 0644), and Clobenpropit (Tocris, 0754) diluted in assay buffer.
The compounds provided herein were tested in the histamine H3 in vitro assay. In one embodiment, the respective HCl salts of the compounds provided herein were prepared using standard chemical procedures and tested in the histamine H3 in vitro assay.
For the compound `CC1CCCC1N1CCC2(CC1)Cc1cc(-c3ccc(C#N)cc3)ccc1O2` (centres unmarked) [Compound 18], the IC50 (usually the concentration at which inhibition is half-maximal) is no more than 100 nM.
Still for that read-out and setting: the value for `CN1CCC(N2CCC3(CC2)Cc2cc(-c4ccc5[nH]ccc5c4)ccc2O3)CC1` [Compound 10, 5-(1H-Indol-5-yl)-1′-(1-methylpiperidin-4-yl)-3H-spiro[benzofuran-2,4′-piperidine]] was no more than 1000 nM; that for `Brc1ccc2c(c1)CC1(CCCN(C3CCC3)CC1)O2` (centres unmarked) [Compound 47, 5′-Bromo-1-cyclobutyl-3′H-spiro[azepane-4,2′-benzofuran]] was no more than 1000 nM; that for `c1ccc2c(c1)CC1(CCN(C3CCC3)CC1)O2` [Compound 1, 1′-Cyclobutyl-3H-spiro[benzofuran-2,4′-piperidine]] was no more than 100 nM.
On the same count and under the same terms, the value for `c1cc2c(cc1-c1cn[nH]c1)CC1(CCN(C3CCC3)CC1)O2` [Compound 27, 1′-Cyclobutyl-5-(1H-pyrazol-4-yl)-3H-spiro[benzofuran-2,4′-piperidine]] was no more than 100 nM; that for `CC(C1CCC1)N1CCC2(CC1)Cc1ccccc1O2` (centres unmarked) [Compound 4, 1′-(1-Cyclobutylethyl)-3H-spiro[benzofuran-2,4′-piperidine]] was no more than 1000 nM.
With “5-(Imidazo[1,2-a]pyridin-6-yl)-1′,2′,3′,5′,6′,7′,9′,9a′-octahydro-3H-spiro[benzofuran-2,8′-pyrrolo[1,2-a]azepine] and 5-(imidazo[1,2-a]pyridin-6-yl)-1′,2′,3′,5′,6′,8′,9′,9a′-octahydro-3H-spiro[benzofuran-2,7′-pyrrolo[1,2-a]azepine] [96/96a]”, the IC50 was no more than 10 nM.
`N#Cc1ccc(-c2ccc3c(c2)CC2(CCN4CCCC4C2)O3)cc1` (centres unmarked) [Compound 90, 4-(2′,3′,5′,6′,8′,8a′-Hexahydro-1′H,3H-spiro[benzofuran-2,7′-indolizin]-5-yl)benzonitrile]: the concentration for half-maximal inhibition (IC50) was no more than 10 nM.
For `c1ccc2c(c1)ncn2-c1ccc2c(c1)C[C@]1(CCCN(C3CCC3)CC1)O2` (single isomer, unassigned) [Compound 53, 5′-(1H-Benzo[d]imidazol-1-yl)-1-cyclobutyl-3′H-spiro[azepane-4,2′-benzofuran]], the IC50 was no more than 100 nM.
Still for that read-out and setting: as for `CC(=O)Nc1ccc(-c2ccc3c(c2)CC2(CCN(C(C)C4CCC4)CC2)O3)cc1` (centres unmarked) [Compound 12, N-(4-(1′-(1-Cyclobutylethyl)-3H-spiro[benzofuran-2,4′-piperidine]-5-yl)phenyl)acetamide], the figure is no more than 10 nM; as for `CC(C)N1CCC2(CC1)Cc1cc(-c3ccc(C#N)cc3)ccc1O2` [Compound 22, 4-(1′-Isopropyl-3H-spiro[benzofuran-2,4′-piperidine]-5-yl)benzonitrile], no more than 10 nM; as for `N#Cc1ccc(-c2ccc3c(c2)OC2(CCCN(C4CCC4)CC2)C3)cc1` (centres unmarked) [Compound 68, 4-(1-Cyclobutyl-3′H-spiro[azepane-4,2′-benzofuran]-6′-yl)benzonitrile], no more than 100 nM.
With `c1ccc2c(c1)CCN(Cc1ccc3c(c1)CC1(CCN4CCCCC4C1)O3)C2` (centres unmarked) [Compound 81, 5-((3,4-Dihydroisoquinolin-2(1H)-yl)methyl)-1′,3′,4′,6′,7′,8′,9′,9a′-octahydro-3H-spiro[benzofuran-2,2′-quinolizine]], the IC50 is no more than 10 nM.
For the compound `CN1CCC(N2CCC3(CC2)Cc2cc(-c4ccc(C#N)cc4)ccc2O3)CC1` [Compound 8, 4-(1′-(1-Methylpiperidin-4-yl)-3H-spiro[benzofuran-2,4′-piperidine]-5-yl)benzonitrile], the IC50 was no more than 100 nM.
Regarding `N#Cc1ccc(-c2ccc3c(c2)CC2(CCCN4CCCCC4C2)O3)cc1` (centres unmarked) [Compound 86, 4-(2′,3′,4′,6′,7′,8′,10′,10a′-octahydro-1′H,3H-spiro[benzofuran-2,9′-pyrido[1,2-a]azepin]-5-yl)benzonitrile], the IC50 was no more than 10 nM.
Same read-out and setting: the value for `N#Cc1ccc(-c2ccc3c(c2)CC2(CCCN(C4CCC4)CC2)O3)cc1` (centres unmarked) [Compound 48, 4-(1-Cyclobutyl-3′H-spiro[azepane-4,2′-benzofuran]-5′-yl)benzonitrile] was no more than 10 nM.
`c1nc2ccc(-c3ccc4c(c3)CC3(CCN(C5CCC5)CC3)O4)cn2n1` [Compound 62, 5-([1,2,4]Triazolo[1,5-a]pyridin-6-yl)-1′-cyclobutyl-3H-spiro[benzofuran-2,4′-piperidine]]: the IC50 is no more than 10 nM.
On to `N#Cc1ccc(NCc2ccc3c(c2)CC2(CCN(C4CCC4)CC2)O3)cc1` [Compound 42, 4-((1′-Cyclobutyl-3H-spiro[benzofuran-2,4′-piperidine]-5-yl)methylamino)benzonitrile], for which the concentration for half-maximal inhibition (IC50) was no more than 100 nM.
Turning to `c1ccc2c(c1)ncn2-c1ccc2c(c1)CC1(CCN(C3CCC3)CC1)O2` [Compound 32, 5-(1H-Benzo[d]imidazol-1-yl)-1′-cyclobutyl-3H-spiro[benzofuran-2,4′-piperidine]], the IC50 is no more than 10 nM.
For `CC(C1CCC1)N1CCC2(CC1)Cc1cc(-c3ccc4[nH]ccc4c3)ccc1O2` (centres unmarked) [Compound 13, 1′-(1-Cyclobutylethyl)-5-(1H-indol-5-yl)-3H-spiro[benzofuran-2,4′-piperidine]], the IC50 is no more than 100 nM.
Consider “4-(1′,2′,3′,5′,6′,7′,9′,9a′-Octahydro-3H-spiro[benzofuran-2,8′-pyrrolo[1,2-a]azepin]-5-yl)benzonitrile and 4-(1′,2′,3′,5′,6′,8′,9′,9a′-octahydro-3H-spiro[benzofuran-2,7′-pyrrolo[1,2-a]azepin]-5-yl)benzonitrile [95/95a]”, for which the IC50 is no more than 100 nM.
Turning to `COc1ccnc(-c2ccc3c(c2)OC2(CCN(C4CCC4)CC2)C3)n1` [Compound 36, 1′-Cyclobutyl-6-(4-methoxypyrimidin-2-yl)-3H-spiro[benzofuran-2,4′-piperidine]], the half-maximal inhibitory concentration (IC50) was no more than 100 nM.
For the compound `NCc1ccc(-c2ccc3c(c2)CC2(CCN(C4CCC4)CC2)O3)cc1` [Compound 14, (4-(1′-Cyclobutyl-3H-spiro[benzofuran-2,4′-piperidine]-5-yl)phenyl)methanamine], the IC50 was no more than 100 nM.
For the compound “5-(Morpholinomethyl)-2′,3′,4′,6′,7′,9′,10′,10a′-octahydro-1′H,3H-spiro[benzofuran-2,8′-pyrido[1,2-a]azepine] and 5-(morpholinomethyl)-2′,3′,4′,6′,7′,8′,10′,10a′-octahydro-1′H,3H-spiro[benzofuran-2,9′-pyrido[1,2-a]azepine] [87/87a]”, the IC50 is no more than 100 nM.
For `c1cc2c(cc1-c1cnc3[nH]ncc3c1)CC1(CCN(C3CCC3)CC1)O2` [Compound 64, 1′-Cyclobutyl-5-(1H-pyrazolo[3,4-b]pyridin-5-yl)-3H-spiro[benzofuran-2,4′-piperidine]], the IC50 was no more than 10 nM.
`c1cn2cc(-c3ccc4c(c3)CC3(CCCN5CCCCC5C3)O4)ccc2n1` (centres unmarked) [Compound 84, 5-(imidazo[1,2-a]pyridin-6-yl)-2′,3′,4′,6′,7′,8′,10′,10a′-octahydro-1′H,3H-spiro[benzofuran-2,9′-pyrido[1,2-a]azepine]]: the IC50 is no more than 100 nM.
Turning to `c1cn(-c2ccc3c(c2)CC2(CCN(C4CCC4)CC2)O3)cn1` [Compound 31, 1′-Cyclobutyl-5-(1H-imidazol-1-yl)-3H-spiro[benzofuran-2,4′-piperidine]], the half-maximal inhibitory concentration (IC50) was no more than 10 nM.
Still for that read-out and setting: as for `CN1CCN(c2ccc3c(c2)CC2(CCN(C4CCC4)CC2)O3)CC1` [Compound 33, 1′-Cyclobutyl-5-(4-methylpiperazin-1-yl)-3H-spiro[benzofuran-2,4′-piperidine]], the figure is no more than 10 nM; as for `N#Cc1ccc(-c2ccc3c(c2)CC2(CCC4CCCCN4CC2)O3)cc1` (centres unmarked) [Compound 85, 4-(2′,3′,4′,6′,7′,9′,10′,10a′-Octahydro-1′H,3H-spiro[benzofuran-2,8′-pyrido[1,2-a]azepin]-5-yl)benzonitrile], no more than 10 nM; as for `c1ccc2c(c1)ncn2-c1ccc2c(c1)OC1(CCCN(C3CCC3)CC1)C2` (centres unmarked) [Compound 70, 6′-(1H-Benzo[d]imidazol-1-yl)-1-cyclobutyl-3′H-spiro[azepane-4,2′-benzofuran]], no more than 10 nM.
As to `c1cn2cc(-c3ccc4c(c3)OC3(CCCN(C5CCC5)CC3)C4)ccc2n1` (centres unmarked) [Compound 69, 1-Cyclobutyl-6′-(imidazo[1,2-a]pyridin-6-yl)-3′H-spiro[azepane-4,2′-benzofuran]], the IC50 was no more than 100 nM.

The assay is the same for the next values; noted with them: histamine H3 in vitro assay; read-out: IC50 values.
On to `Brc1ccc2c(c1)CC1(CCN(Cc3c[nH]cn3)CC1)O2` [Compound 26, 1′-((1H-Imidazol-4-yl)methyl)-5-bromo-3H-spiro[benzofuran-2,4′-piperidine]], for which the IC50 is greater than 1000 nM.
